The subject of experiment [1] is B. subtilis 168. The format is cell-based. The conditions noted are these: Mueller-Hinton Broth. How it is done:
(§1) Antibiotic susceptibility was tested using standard procedures in Mueller-Hinton Broth for most strains. Enterococcus strains were grown in Brain Heart Infusion media (BHI; BD Biosciences). Streptomyces MICs were determined in Bennett’s media (10 g potato starch, 2 g casamino acids, 1.8 g yeast extract, 0.2 g KCl, 0.2 g MgSO4·7H2O, 0.24 g NaNO3, 4 mg FeSO4·7H2O, 1 L ddH2O, pH 6.8).

Experiment [2] has as its system E. coli BW25113. The format is cell-based. The conditions noted are these: Mueller-Hinton Broth. How it is done:
as §1

Experiment [3] deals with E. coli BW25113ΔbamBΔtolC. The format is cell-based. The conditions noted are these: Mueller-Hinton Broth. How it is done: as §1
For experiment [4], the system named is E. faecium ATCC19434. The format is cell-based. The settings on record: Brain Heart Infusion media. How it is done:
as §1

The test system of experiment [5] is E. faecium ATCC29212. The format is cell-based. The settings on record: Brain Heart Infusion media. How it is done: as §1
For experiment [6], the system named is E. faecium ATCC51299 (VREB). It counts as cell-based. The settings on record: Brain Heart Infusion media. How it is done: as §1
In experiment [7] the test system is E. faecium ATCC70022 (VREA). It counts as cell-based. The settings on record: Brain Heart Infusion media. How it is done:
as §1

Experiment [8] has as its system S. aureus ATCC29213. The format is cell-based. The conditions noted are these: Mueller-Hinton Broth. How it is done: as §1
Experiment [9] deals with S. venezuelae ATCC10712. It counts as cell-based. The conditions noted are these: Bennett's media. How it is done:
as §1

Experiment [10] has as its system MRSA USA300. The format is cell-based, S. aureus. The conditions noted are these: Mueller-Hinton Broth. How it is done: as §1
For experiment [11], the system named is Vancomycin intermediate MRSA Mu50. The format is cell-based, S. aureus. The settings on record: Mueller-Hinton Broth. How it is done: as §1
Experiment [12] has as its system hVISA MRSA Mu3. It counts as cell-based, S. aureus. The conditions noted are these: Mueller-Hinton Broth. How it is done:
as §1

The subject of experiment [13] is S. coelicolor M1154/pAMX4/pGP6738. Put plainly: MIC, antibiotic susceptibility testing. The format is cell-based. The conditions noted are these: Bennett's media. How it is done: as §1
In experiment [14] the test system is S. coelicolor M1154. The experiment can be described thus: MIC, antibiotic susceptibility testing. The format is cell-based. The settings on record: Bennett's media. How it is done:
as §1

The subject of experiment [15] is panel of indicator strains. The experiment can be described thus: MIC determination against a panel of indicator strains, comparison of Type V GPAs. It counts as cell-based. How it is done:
as §1

For experiment [16], the system named is B. subtilis 168. Put plainly: Brightfield microscopy of cell morphology at sub-MIC. It counts as cell-based. The conditions noted are these: B. subtilis 168 grown with sub-MIC (0.6× MIC, 3.2 µg/mL GP6738) to mid-log phase.
For experiment [17], the system named is B. subtilis 168. The experiment can be described thus: Cell lysis assay / growth tracking (OD600). It counts as cell-based. How it is done:
Early exponential phase B. subtilis 168 (OD600 ~0.25) grown in LB media was dispensed 100 µL per well into a round bottom 96 well plate. Antibiotics were supplemented to the appropriate concentration, and where appropriate lytic agents were added (50 µg/mL fosfomycin, 100 µg/mL ampicillin, 100 mM sodium azide). The plate was covered with a clear, breathable film and OD600 was monitored on a Tecan sunrise microplate reader at 37 °Cwith shaking.

In experiment [18] the test system is mutanolysin. The experiment can be described thus: Peptidoglycan autolysin digestion in vitro, mutanolysin. The settings on record: mutanolysin 20 µg/mL, 1 mg/mL B. subtilis PG, 20 mM sodium acetate pH 6.5, 30 min preincubation, OD600, 37 °C, triplicate. It counts as biochemical. How it is done: (§2) The muramidase mutanolysin was purchased from Sigma. The glucosaminidase domain from LytD was cloned from B. subtilis 168 into pET28 between NcoI and XhoI restriction sites for introduction of C-term 6× His. Construct was expressed from E. coli BL21(DE3) pLysS by inoculating 1 L of LB media 1:50 from an overnight culture, then growing at 37 °C until OD600 reached 0.6, at which time the cells were induced with 1 mM IPTG and grown for 18 h at 16 °C. Native LytD-6× His was purified by Ni-NTA affinity chromatography and cation exchange chromatography. Protein purity was >95% as assessed by SDS-PAGE analysis.
(§3) B. subtilis peptidoglycan for binding and digestion assays was prepared by harvesting the cells (OD600 0.6–0.7), boiled in 4% SDS, and washed and sonicated to break up sacculi, followed by α-amylase and DNase treatment, and digested with pronase overnight. The peptidoglycan was boiled in 2% SDS again, washed, and teichoic acids were hydrolysed with 1 M HCl. The peptidoglycan was washed with water to pH 6.0 and lyophilized to use. Peptidoglycan was digested under optimized conditions with either mutanolysin (20 µg/mL, 1 mg/mL PG, 20 mM sodium acetate, pH 6.5) or LytD (10 µg/mL, 1 mg/mL PG, 200 mM NaCl, 50 mM MES-NaOH, pH 5.5). […] The plate was covered with a clear, breathable film to prevent evaporation, and OD600 was tracked on a Tecan sunrise microplate reader shaking at 37 °C.

Experiment [19] concerns LytD. The experiment can be described thus: Peptidoglycan autolysin digestion in vitro, LytD. The format is biochemical, B. subtilis 168. The settings on record: LytD 10 µg/mL, 1 mg/mL B. subtilis PG, 200 mM NaCl, 50 mM MES-NaOH pH 5.5, 30 min preincubation, OD600, 37 °C, triplicate. How it is done:
as §2, §3

The nature of experiment [20]: Peptidoglycan binding assay. On the set-up: species or system B. subtilis. The conditions noted are these: 0.1 mg/mL GP6738 in water with 20% DMSO, PG 25:1 to 200:1 w/w, 1–2 h at 37 °C, unbound compound by HPLC. How it is done: To assess peptidoglycan binding, GP6738 was diluted to 0.1 mg/mL in water with 20% (v/v) DMSO to aid GP6738 solubility. For each 100 μL binding assay, B. subtilis peptidoglycan was added to 0 mg/mL, 2.5 mg/mL, 5 mg/mL, 10 mg/mL or 20 mg/mL for 0, 25:1, 50:1, 100:1 and 200:1 w/w ratios, respectively. Mixtures were incubated for 1–2 h at 37 °C, then centrifuged for 10 min to thoroughly pellet insoluble material, and the supernatant was removed for analysis. Samples were prepared for HPLC analysis by the addition of NH4OH to 0.01% (v/v), and 50 µL was injected on the HPLC. Analysis was performed using a Thermo Hypersil GOLD aQ C18 4.6 × 150 mm column and the following gradient at 0.8 mL/min, 40 °C: t = 0–2 min 0% solvent B, t = 10–13 min 65% solvent B, t = 14 min 0% solvent B (solvent A: 0.01% v/v NH4OH in water [pH 9.6] and solvent B: ACN).

The conditions of experiment [21]: amide linkage changed to an ester; cited from earlier work. The source says:
Glycopeptide antibiotics (GPAs), such as vancomycin and teicoplanin (Fig. 1a), are microbial natural products (NPs) that are essential for the control of infections caused by Gram-positive pathogens. Vancomycin and teicoplanin inhibit bacterial cell wall biosynthesis by binding to the D-Alanine-D-Alanine terminating dipeptide of growing peptidoglycan and its extracellular precursors. Like all antibiotics, GPAs are vulnerable to resistance. Vancomycin resistance occurs through reprogramming of cell wall biosynthesis, mediated by a vanRSHAX resistance cassette that replaces the D-Ala-D-Ala te ...

In experiment [22] the test system is Bacillus subtilis 168. Put plainly: Antibacterial activity assay (bioassay) of fermentation extracts. It counts as cell-based. The conditions noted are these: B. subtilis 168. The source says: Supplementary Fig. 4. Bioassay of corbomycin heterologous expression extracts against B. subtilis 168. Crude extracts from S. coelicolor M1154/pGP1529 strain do […]
from S. coelicolor M1154/pAMX4/pGP1529. […]
parental strain S. sp. WAC01529 are likely the result of uncharacterized compounds produced by this strain, as equivalent amounts of purified corbomycin as are present […]
Source data are provided as a Source Data file.
(1 picture or pasted object on this page, not shown here)

Values after ≈ are worked out from the molar mass of the structure shown.

As a reminder, the MIC is the least concentration at which growth counts as inhibited. Low values mean inhibition by little substance, high ones a need for much substance. Consider `CC(C)C(NC(=O)C(NC(=O)C(N)c1cc(O)cc(O)c1)c1cc(O)cc(O)c1)C(=O)NC1Cc2c[nH]c3cc(ccc23)-c2cc3cc(c2O)Oc2ccc(cc2)CC(C(=O)NC(C(=O)O)c2cc(O)cc(O)c2)NC(=O)C(c2cc(O)cc(O)c2)NC(=O)C3NC(=O)C(c2cc(O)cc(O)c2)NC1=O` (stereo not shown) [GP6738], for which the MIC in experiment [1] was 4 µg/mL (≈ 2.78 µM); in experiment [2], > 256 µg/mL; in experiment [3] it was > 256 µg/mL; in experiment [4], 64 µg/mL (≈ 44.5 µM); in experiment [5], 64 µg/mL (≈ 44.5 µM); in [6], 64 µg/mL (≈ 44.5 µM). The MIC is 64 µg/mL (≈ 44.5 µM) in experiment [7]; 4 µg/mL (≈ 2.78 µM) in experiment [8]; 16 µg/mL (≈ 11.1 µM) in experiment [9]; 4 µg/mL (≈ 2.78 µM) in experiment [10]; 2 to 4 µg/mL in experiment [11]; 4 µg/mL (≈ 2.78 µM) in [12]. The minimal inhibitory concentration (MIC) in experiment [13] and in [14] was 16 µg/mL (≈ 11.1 µM) each time. For the same compound, the “fold higher MIC of GP6738 compared to corbomycin” value in experiment [15] is given as 2–16 fold. The cell morphology result in [16] is “characteristic elongated cell morphology of autolysin inhibition”. Besides, the “bacteriostatic or bacteriolytic effect, growth tracking” value in experiment [17] (B. subtilis 168, 10-fold MIC, OD600, 37 °C, n = 3) is “bacteriostatic phenotype”. The “block of cell lysis induced by lytic agents” value in experiment [17] (B. subtilis 168, 10× MIC, 50 µg/mL fosfomycin, 100 µg/mL ampicillin or 100 mM sodium azide, OD600, n = 3) was “able to block cell lysis”. Also, the “block of peptidoglycan digestion by mutanolysin” value in [18] was “blocks cell wall digestion”. In addition, in experiment [19], the “block of peptidoglycan digestion by LytD” value is on record as “blocks cell wall digestion”. In experiment [20], the binding to peptidoglycan entry was “binding to peptidoglycan”.

`CN[C@H](CC(C)C)C(=O)N[C@H]1C(=O)N[C@@H](CC(N)=O)C(=O)N[C@H]2C(=O)N[C@H]3C(=O)N[C@H](C(=O)N[C@H](C(=O)O)c4cc(O)cc(O)c4-c4cc3ccc4O)[C@H](O)c3ccc(c(Cl)c3)Oc3cc2cc(c3O[C@@H]2O[C@H](CO)[C@@H](O)[C@H](O)[C@H]2O[C@H]2C[C@](C)(N)[C@H](O)[C@H](C)O2)Oc2ccc(cc2Cl)[C@H]1O` [Vancomycin]: the MIC in [1] came to 0.25 µg/mL (≈ 0.173 µM); in [2], 256 µg/mL (≈ 177 µM); in [3] it was 8 µg/mL (≈ 5.52 µM); in [4], 2 µg/mL (≈ 1.38 µM); in experiment [5] it was 2 µg/mL (≈ 1.38 µM); in experiment [6], 32 µg/mL (≈ 22.1 µM). In addition, the MIC is > 256 µg/mL in experiment [7]; 1 µg/mL (≈ 0.69 µM) in experiment [8]; 0.25 µg/mL (≈ 0.173 µM) in experiment [9]; 1 µg/mL (≈ 0.69 µM) in [10]; 8 µg/mL (≈ 5.52 µM) in [11]; 2 µg/mL (≈ 1.38 µM) in experiment [12]. Besides, the MIC in [13] and in experiment [14] was 256 µg/mL (≈ 177 µM) in each case. Besides, in [21], the “decrease of affinity of vancomycin on change of D-Ala-D-Ala to D-Ala-D-Lactate” value was 1000 fold.

In the case of Complestatin, the MIC in [1] was 0.5 µg/mL; in experiment [2], > 256 µg/mL; in experiment [3], 64 µg/mL; in [4], 64 µg/mL; in [5], 32 µg/mL; in experiment [6], 32 µg/mL. The MIC came to 64 µg/mL in [7]; 2 µg/mL in experiment [8]; 2 µg/mL in [9]; 2 µg/mL in experiment [10]; 0.5 µg/mL in [11]; 0.5 µg/mL in [12]. For the same compound, in experiment [14], the MIC amounted to 4 µg/mL.

Regarding Corbomycin, the MIC in [1] was 1 µg/mL; in [2], > 256 µg/mL; in [3], 32 µg/mL; in experiment [4], 4 µg/mL; in experiment [5], 4 µg/mL; in [6], 4 µg/mL. For the same compound, the MIC in experiment [7] was 4 µg/mL; in experiment [8], 1 µg/mL; in [9], 2 µg/mL; in experiment [10], 1 µg/mL; in [11] it was 1 µg/mL; in experiment [12], 1 µg/mL. The MIC in experiment [13] and in experiment [14] was 4 µg/mL throughout. In addition, in [22], the “growth inhibition / zones of inhibition” value is recorded as “do not give zones”.

Values taken from paper PMC7567792, “GPAHex-A synthetic biology platform for Type IV–V glycopeptide antibiotic production and discovery” (Nature Communications, 2020).
